Assay results published in patent US9288983B2, “Compositions of dibromomalonamide and their use as biocides” (Dow Global Technologies LLC, priority 2009, dated 2016).
Read-outs that look alike come from different tables or passages of the source.

Legend:
[1] = tested on: mixture of Pseudomonas aeruginosa ATCC 10045 and Staphylococcus aureus ATCC 6538; experiment: Kill assay (minimum biocide concentration, MBC); assay type: cell-based; settings: single active, 37° C., 2 hours
Method: The procedure is as follows.
(§1) The SI values are interpreted as follows: • SI<1: Synergistic combination • SI=1: Additive combination • SI>1: Antagonistic combination
(§2) In the Examples below, the amounts of biocides in the solution are measured in mg per liter of solution (mg/l). Since solution densities are approximately 1.0, the mg/l measurement corresponds to weight ppm. Both units may therefore be used interchangeably in the Examples.

[2] = tested on: mixture of Pseudomonas aeruginosa, Klebsiella pneumoniae, Staphylococcus aureus, and Bacillus subtilis; experiment: Growth inhibition assay (microtiter plate, OD580); assay type: cell-based; settings: for inhibition at 0.39 µg/mL / inhibition at 0.78 µg/mL / inhibition at 1.56 µg/mL / inhibition at 3.13 µg/mL / inhibition at 6.25 µg/mL / inhibition at 12.5 µg/mL / inhibition at 25 µg/mL / % Inhibition of growth by single active: 24 h; for inhibition at 0.39 µg/mL / inhibition at 0.78 µg/mL / inhibition at 1.56 µg/mL / inhibition at 3.13 µg/mL / inhibition at 6.25 µg/mL / inhibition at 12.5 µg/mL / inhibition at 25 µg/mL: read-out: % Inhibition of growth by single active; for I90 value: 24 hr
Text: Growth Inhibition Assay. […] Regardless of the mechanism of action, the impact of a biocide (or combination of biocides) can be measured over time on the basis of an increase in the size of the community.
The assay measures the efficacy of one or more biocides at preventing growth of a consortium of bacteria in a dilute mineral salts medium. The medium contains (in mg/l) the following components: FeCl3.6H2O (1); CaCl2.2H2O (10); MgSO4.7H2O (22.5); (NH4)2SO4 (40); KH2PO4 (10); K2HPO4 (25.5); Yeast Extract (10); and glucose (100). After all components are added to deionized water, the pH of the medium is adjusted to 7.5. Following filter sterilization, aliquots are dispensed in 100 ul quantities to sterile microtiter plate wells. Dilutions of DBMAL and/or “Biocide B” are then added to the microtiter plate. After preparing the combinations of actives as illustrated below, each well is inoculated with 100 μl of a cell suspension containing ca. […] cells per milliliter of a mixture of Pseudomonas aeruginosa, Klebsiella pneumoniae, Staphylococcus aureus, and Bacillus subtilis. The final total volume of medium in each well is 300 μl. Once prepared as described herein, the concentration of each active ranges from 25 ppm to 0.19 ppm as illustrated in Table 1. The resulting matrix allows testing of eight concentrations of each active and 64 combinations of actives in the ratios (of actives).
Controls (not shown) contain the medium with no biocide added. After preparing the combinations of actives as illustrated above, each well is inoculated with 100 μl of a cell suspension containing ca. […] cells per milliliter of a mixture of Pseudomonas aeruginosa, Klebsiella pneumoniae, Staphylococcus aureus, and Bacillus subtilis. The final total volume of medium in each well is 300 μl.
Immediately after the microtiter plates are prepared, the optical density (OD) readings for each well is measured at 580 nm and the plates are then incubated at 37° C. for 24 hr. After the incubation period, the plates are gently agitated before OD580 values are collected. The OD580 values at T0 are subtracted from T24 values to determine the total amount of growth (or lack thereof) that occurs. These values are used to calculate the percent inhibition of growth caused by the presence of each biocide and each of the 64 combinations.
where • CDBMAL: Concentration of DBMAL required to inhibit ˜90% of bacterial growth when used alone • CB: Concentration of biocide (B) required to inhibit ˜90% of bacterial growth when used alone. • MDBMAL: Concentration of DBMAL required to inhibit ˜90% of bacterial growth when used in combination with biocide (B). • MB: Concentration of biocide (B) required to inhibit ˜90% of bacterial growth when used in combination with DBMAL
as §1, §2

Compound | MBC (minimum biocide concentration needed to completely kill the bacterial cells), biocide alone [1] | inhibition at 0.39 µg/mL ([2]; Table 3, 0.39 mg/l alone) | inhibition at 0.78 µg/mL ([2]; Table 3, 0.78 mg/l alone) | inhibition at 1.56 µg/mL ([2]; Table 3, 1.56 mg/l alone) | inhibition at 3.13 µg/mL ([2]; Table 3, 3.13 mg/l alone) | inhibition at 12.5 µg/mL ([2]; Table 3, 12.5 mg/l alone) | I90 value ([2]; Example 2, single active) | I90 value ([2]; Example 3, single active) | inhibition at 0.78 µg/mL ([2]; Table 9, 0.78 mg/l alone) | inhibition at 1.56 µg/mL ([2]; Table 9, 1.56 mg/l alone) | inhibition at 3.13 µg/mL ([2]; Table 9, 3.13 mg/l alone) | inhibition at 6.25 µg/mL ([2]; Table 9, 6.25 mg/l alone) | I90 value ([2]; Example 4, single active) | other results
O=[N+]([O-])C(Br)(CO)CO [Bronopol, 2-bromo-2-nitropropane-1,3-diol] | >150 µg/mL | 0% | 0% | 0% | 67% | 99% | – | – | – | – | – | – | – | inhibition at 6.25 µg/mL ([2]; Table 3, 6.25 mg/l alone): 96%; inhibition at 25 µg/mL ([2]; Table 3, 25.0 mg/l alone): 97%
O=[N+]([O-])C(Br)=Cc1ccccc1 [BNS, bromonitrostyrene] | – | – | – | – | – | – | 6.25 mg/L | – | – | – | – | – | – | % Inhibition of growth by single active ([2]; Table 5, 0.78 mg/l alone): 19%; % Inhibition of growth by single active ([2]; Table 5, 1.56 mg/l alone): 42%; % Inhibition of growth by single active ([2]; Table 5, 3.13 mg/l alone): 75%
N#CSCSC#N [MBT, methylene bis(thiocyanate)] | – | – | – | – | – | – | – | 0.78 mg/L | – | – | – | – | – | % Inhibition of growth by single active ([2]; Table 7, 0.39 mg/l alone): 24%
NC(=O)C(Br)(Br)C(N)=O [DBMAL, 2,2-dibromomalonamide] | 66.7 µg/mL | 8% | 12% | 13% | 17% | 97% | 12.5 mg/L | 12.5 mg/L | 11% | 14% | 20% | 100% | 6.25 mg/L | inhibition at 0.39 µg/mL ([2]; Table 5, 0.39 mg/l alone): 1%; inhibition at 3.13 µg/mL ([2]; Table 5, 3.13 mg/l alone): 34%; inhibition at 6.25 µg/mL ([2]; Table 5, 6.25 mg/l alone): 65%; inhibition at 25 µg/mL ([2]; Table 5, 25.0 mg/l alone): 98%; inhibition at 0.39 µg/mL ([2]; Table 7, 0.39 mg/l alone): 23%; inhibition at 0.78 µg/mL ([2]; Table 7, 0.78 mg/l alone): 58%; inhibition at 1.56 µg/mL ([2]; Table 7, 1.56 mg/l alone): 52%; inhibition at 3.13 µg/mL ([2]; Table 7, 3.13 mg/l alone): 61%; inhibition at 6.25 µg/mL ([2]; Table 7, 6.25 mg/l alone): 41%; inhibition at 25 µg/mL ([2]; Table 7, 25.0 mg/l alone): 98%
N#CCCC(Br)(C#N)CBr (stereo not drawn) [DBDCB, 1,2-Dibromo-2,4-dicyanobutane] | – | – | – | – | – | – | – | – | 0% | 17% | 43% | 100% | 6.25 mg/L | inhibition at 0.39 µg/mL ([2]; Table 9, 0.39 mg/l alone): 0%; inhibition at 12.5 µg/mL ([2]; Table 9, 12.5 mg/l alone): 99%; inhibition at 25 µg/mL ([2]; Table 9, 25.0 mg/l alone): 97%
